Results published in patent US10231954B2, “Neurodegenerative therapies” (LYTIX BIOPHARMA AS, priority 2014, dated 2019).
Where two headings read alike, the source gives them in different places.

How the values were obtained:
Type in all cases: biochemical
[1] = target: T1, DDR2 (Homo sapiens, UniProt Q16832); experiment: Kinase profiling DDR2; conditions: for remaining activity at 100 µM: read-out: residual kinase activity, DDR2
T1 sequence (Q16832 22-855): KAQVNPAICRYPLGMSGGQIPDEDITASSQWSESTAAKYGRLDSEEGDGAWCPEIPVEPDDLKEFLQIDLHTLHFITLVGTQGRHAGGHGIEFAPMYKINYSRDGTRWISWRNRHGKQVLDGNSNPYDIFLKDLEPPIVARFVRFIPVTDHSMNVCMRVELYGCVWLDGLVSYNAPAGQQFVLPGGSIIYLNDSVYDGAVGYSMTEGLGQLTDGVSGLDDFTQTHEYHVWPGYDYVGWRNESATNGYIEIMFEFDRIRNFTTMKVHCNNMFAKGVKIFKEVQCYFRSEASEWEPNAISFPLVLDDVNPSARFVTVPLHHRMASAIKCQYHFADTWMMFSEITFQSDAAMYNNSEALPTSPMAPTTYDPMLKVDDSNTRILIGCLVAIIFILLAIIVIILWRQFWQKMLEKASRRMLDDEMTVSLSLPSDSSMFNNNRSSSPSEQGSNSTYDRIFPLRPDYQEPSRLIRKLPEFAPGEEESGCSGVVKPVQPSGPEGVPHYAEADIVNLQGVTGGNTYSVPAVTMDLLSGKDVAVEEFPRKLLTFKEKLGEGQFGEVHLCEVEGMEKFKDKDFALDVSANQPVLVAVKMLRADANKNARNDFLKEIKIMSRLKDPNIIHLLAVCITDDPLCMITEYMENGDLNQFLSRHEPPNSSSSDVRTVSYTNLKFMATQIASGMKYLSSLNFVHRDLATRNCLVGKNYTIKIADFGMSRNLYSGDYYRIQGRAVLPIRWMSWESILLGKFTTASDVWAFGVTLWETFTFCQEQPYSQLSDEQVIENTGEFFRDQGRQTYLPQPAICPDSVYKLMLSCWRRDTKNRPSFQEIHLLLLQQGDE
Text: (§1) Any value less that 25 is considered to be highly significant inhibition.

[2] = target: SIK3 (Homo sapiens, UniProt Q9Y2K2); experiment: Kinase profiling SIK3; conditions: for remaining activity at 100 µM: read-out: residual kinase activity, SIK3
Text: as §1

[3] = target: MNK2 (Homo sapiens, UniProt Q9HBH9); experiment: Kinase profiling MNK2; conditions: for remaining activity at 100 µM: read-out: residual kinase activity, MNK2
Text: as §1

[4] = target: MAPKAP-K3 (Homo sapiens, UniProt Q16644); experiment: Kinase profiling MAPKAP-K3; conditions: for remaining activity at 100 µM: read-out: residual kinase activity, MAPKAP-K3
Text: as §1

[5] = target: OSR1 (Homo sapiens, UniProt O95747); experiment: Kinase profiling OSR1; conditions: for remaining activity at 100 µM: read-out: residual kinase activity, OSR1
Text: as §1

[6] = target: IRAK1 (Homo sapiens, UniProt P51617); experiment: Kinase profiling IRAK1; conditions: for remaining activity at 100 µM: read-out: residual kinase activity, IRAK1
Text: as §1

[7] = target: CSK (Homo sapiens, UniProt P41240); experiment: Kinase profiling CSK; conditions: for remaining activity at 100 µM: read-out: residual kinase activity, CSK
Text: as §1

[8] = target: T2, EPH-B4 (Homo sapiens, UniProt P54760); experiment: Kinase profiling EPH-B4; conditions: for remaining activity at 100 µM: read-out: residual kinase activity, EPH-B4
T2 sequence (P54760 16-987): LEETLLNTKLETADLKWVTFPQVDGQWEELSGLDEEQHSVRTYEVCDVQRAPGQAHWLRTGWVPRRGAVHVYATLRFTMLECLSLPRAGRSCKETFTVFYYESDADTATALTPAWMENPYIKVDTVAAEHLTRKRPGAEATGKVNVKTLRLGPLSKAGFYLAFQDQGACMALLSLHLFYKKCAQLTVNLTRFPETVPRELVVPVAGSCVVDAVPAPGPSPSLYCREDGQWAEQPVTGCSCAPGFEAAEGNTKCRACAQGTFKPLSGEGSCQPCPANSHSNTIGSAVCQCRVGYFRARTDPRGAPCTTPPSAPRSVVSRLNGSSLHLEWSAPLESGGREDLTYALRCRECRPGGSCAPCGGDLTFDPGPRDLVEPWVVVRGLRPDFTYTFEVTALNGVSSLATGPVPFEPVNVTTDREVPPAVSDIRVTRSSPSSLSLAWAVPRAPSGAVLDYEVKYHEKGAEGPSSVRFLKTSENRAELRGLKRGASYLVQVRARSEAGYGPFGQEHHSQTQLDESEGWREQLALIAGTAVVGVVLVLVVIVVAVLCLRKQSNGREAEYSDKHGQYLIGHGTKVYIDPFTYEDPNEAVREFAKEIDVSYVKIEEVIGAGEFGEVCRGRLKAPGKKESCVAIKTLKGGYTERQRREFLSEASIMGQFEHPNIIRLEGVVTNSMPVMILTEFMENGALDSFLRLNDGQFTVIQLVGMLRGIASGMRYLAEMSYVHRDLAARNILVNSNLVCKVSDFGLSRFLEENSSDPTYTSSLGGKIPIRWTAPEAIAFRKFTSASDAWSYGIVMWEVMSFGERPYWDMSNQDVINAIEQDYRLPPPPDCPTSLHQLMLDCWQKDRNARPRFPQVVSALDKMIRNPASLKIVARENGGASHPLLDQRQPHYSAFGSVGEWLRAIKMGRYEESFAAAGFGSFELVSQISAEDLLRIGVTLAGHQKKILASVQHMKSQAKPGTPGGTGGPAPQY
Text: as §1

[9] = target: CDK9-Cyclin T1 (Homo sapiens, UniProt P50750); experiment: Kinase profiling CDK9-Cyclin T1; conditions: for remaining activity at 100 µM: read-out: residual kinase activity, CDK9-Cyclin T1
Text: as §1

[10] = target: SIK2 (Homo sapiens, UniProt Q9H0K1); experiment: Kinase profiling SIK2; conditions: for remaining activity at 100 µM: read-out: residual kinase activity, SIK2
Text: as §1

[11] = target: MAP4K5 (Homo sapiens, UniProt Q9Y4K4); experiment: Kinase profiling MAP4K5; conditions: for residual kinase activity, MAP4K5: 100 micromolar inhibitor concentration, 100 is no change
Text: as §1

[12] = 100 micromolar inhibitor concentration, 100 is no change
[13] = 100 micromolar inhibitor, 100 = no change

Sequence of IRAK1 (P51617 whole entry, species assumed): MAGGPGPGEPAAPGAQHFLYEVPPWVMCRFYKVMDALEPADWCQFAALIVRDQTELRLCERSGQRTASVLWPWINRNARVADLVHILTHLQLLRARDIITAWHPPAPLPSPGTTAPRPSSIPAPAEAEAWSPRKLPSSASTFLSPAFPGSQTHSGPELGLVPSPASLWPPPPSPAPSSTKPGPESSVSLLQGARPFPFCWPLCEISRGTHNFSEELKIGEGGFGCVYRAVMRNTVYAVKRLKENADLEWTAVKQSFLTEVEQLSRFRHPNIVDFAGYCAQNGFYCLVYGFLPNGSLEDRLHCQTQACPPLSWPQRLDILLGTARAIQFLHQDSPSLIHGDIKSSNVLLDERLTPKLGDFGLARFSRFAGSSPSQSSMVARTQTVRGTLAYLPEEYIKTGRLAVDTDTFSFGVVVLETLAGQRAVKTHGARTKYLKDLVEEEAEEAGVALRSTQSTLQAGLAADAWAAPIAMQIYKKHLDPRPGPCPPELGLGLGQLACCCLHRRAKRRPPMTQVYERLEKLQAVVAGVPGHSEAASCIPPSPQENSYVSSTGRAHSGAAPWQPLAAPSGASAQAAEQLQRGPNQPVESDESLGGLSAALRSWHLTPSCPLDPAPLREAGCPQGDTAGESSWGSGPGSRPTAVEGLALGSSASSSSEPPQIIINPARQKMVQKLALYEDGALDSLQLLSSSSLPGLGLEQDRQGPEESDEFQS
Sequence of MNK2 (Q9HBH9 whole entry, species assumed): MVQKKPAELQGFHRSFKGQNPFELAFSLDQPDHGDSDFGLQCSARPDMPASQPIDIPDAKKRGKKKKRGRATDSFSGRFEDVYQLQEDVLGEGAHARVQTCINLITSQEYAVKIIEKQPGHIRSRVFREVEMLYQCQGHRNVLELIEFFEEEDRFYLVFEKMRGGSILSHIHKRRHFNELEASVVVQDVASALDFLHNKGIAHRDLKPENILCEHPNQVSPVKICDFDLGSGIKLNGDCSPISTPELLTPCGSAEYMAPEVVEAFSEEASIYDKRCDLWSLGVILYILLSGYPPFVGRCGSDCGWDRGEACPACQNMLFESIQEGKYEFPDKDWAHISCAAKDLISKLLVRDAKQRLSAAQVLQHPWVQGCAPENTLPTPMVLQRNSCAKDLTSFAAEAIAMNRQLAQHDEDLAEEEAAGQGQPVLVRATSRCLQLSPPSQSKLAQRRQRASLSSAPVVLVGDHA
Sequence of OSR1 (O95747 whole entry): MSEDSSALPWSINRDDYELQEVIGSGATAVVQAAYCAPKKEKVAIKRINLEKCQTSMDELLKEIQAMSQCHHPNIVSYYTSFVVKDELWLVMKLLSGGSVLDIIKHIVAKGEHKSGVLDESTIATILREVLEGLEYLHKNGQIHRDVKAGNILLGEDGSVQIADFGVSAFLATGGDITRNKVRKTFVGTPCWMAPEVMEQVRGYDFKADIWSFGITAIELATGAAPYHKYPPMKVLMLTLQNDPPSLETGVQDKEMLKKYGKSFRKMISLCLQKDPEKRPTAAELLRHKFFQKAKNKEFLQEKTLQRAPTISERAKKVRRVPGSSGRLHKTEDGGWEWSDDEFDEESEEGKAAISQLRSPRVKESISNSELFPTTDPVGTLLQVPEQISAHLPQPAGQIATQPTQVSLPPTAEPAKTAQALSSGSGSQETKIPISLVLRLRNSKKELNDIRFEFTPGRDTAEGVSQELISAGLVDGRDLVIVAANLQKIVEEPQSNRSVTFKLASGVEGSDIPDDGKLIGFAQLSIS
Sequence of SIK2 (Q9H0K1 whole entry, species assumed): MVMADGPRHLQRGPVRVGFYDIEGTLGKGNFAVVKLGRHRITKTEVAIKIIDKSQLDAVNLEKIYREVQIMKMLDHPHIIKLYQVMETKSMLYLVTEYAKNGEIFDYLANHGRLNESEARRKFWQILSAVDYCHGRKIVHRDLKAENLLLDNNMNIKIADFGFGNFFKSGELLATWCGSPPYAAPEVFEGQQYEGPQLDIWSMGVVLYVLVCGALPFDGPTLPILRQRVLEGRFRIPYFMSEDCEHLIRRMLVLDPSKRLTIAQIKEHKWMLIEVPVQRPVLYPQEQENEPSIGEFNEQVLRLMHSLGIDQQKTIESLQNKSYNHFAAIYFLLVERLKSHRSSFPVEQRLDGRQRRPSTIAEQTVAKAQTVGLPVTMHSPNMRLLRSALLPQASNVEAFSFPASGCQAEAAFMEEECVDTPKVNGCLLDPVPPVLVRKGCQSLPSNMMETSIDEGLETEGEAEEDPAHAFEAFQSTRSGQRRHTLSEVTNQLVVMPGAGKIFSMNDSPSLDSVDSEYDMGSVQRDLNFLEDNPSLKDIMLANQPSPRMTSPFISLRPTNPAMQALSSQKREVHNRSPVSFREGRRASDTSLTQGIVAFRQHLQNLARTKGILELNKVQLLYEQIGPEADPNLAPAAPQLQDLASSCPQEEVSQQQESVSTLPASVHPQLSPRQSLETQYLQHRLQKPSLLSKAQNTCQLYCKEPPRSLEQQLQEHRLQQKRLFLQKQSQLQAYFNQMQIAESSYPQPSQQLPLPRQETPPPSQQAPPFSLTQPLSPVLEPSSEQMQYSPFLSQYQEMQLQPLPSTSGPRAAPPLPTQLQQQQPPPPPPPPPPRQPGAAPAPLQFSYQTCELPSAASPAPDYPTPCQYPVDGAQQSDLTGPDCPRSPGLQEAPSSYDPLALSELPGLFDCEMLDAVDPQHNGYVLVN
Sequence of MAPKAP-K3 (Q16644 whole entry, species assumed): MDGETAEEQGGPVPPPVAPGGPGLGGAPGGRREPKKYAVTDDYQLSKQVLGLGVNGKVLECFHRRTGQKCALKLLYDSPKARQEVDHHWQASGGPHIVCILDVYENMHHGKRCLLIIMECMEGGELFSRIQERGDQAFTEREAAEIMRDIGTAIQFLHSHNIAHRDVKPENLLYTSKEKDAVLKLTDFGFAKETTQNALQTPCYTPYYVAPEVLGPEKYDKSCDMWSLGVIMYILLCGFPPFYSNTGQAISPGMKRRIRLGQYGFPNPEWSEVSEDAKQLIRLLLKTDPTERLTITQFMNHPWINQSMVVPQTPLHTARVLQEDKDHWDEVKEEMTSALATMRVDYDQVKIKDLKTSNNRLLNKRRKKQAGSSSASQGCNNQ
Sequence of MAP4K5 (Q9Y4K4 whole entry, species assumed): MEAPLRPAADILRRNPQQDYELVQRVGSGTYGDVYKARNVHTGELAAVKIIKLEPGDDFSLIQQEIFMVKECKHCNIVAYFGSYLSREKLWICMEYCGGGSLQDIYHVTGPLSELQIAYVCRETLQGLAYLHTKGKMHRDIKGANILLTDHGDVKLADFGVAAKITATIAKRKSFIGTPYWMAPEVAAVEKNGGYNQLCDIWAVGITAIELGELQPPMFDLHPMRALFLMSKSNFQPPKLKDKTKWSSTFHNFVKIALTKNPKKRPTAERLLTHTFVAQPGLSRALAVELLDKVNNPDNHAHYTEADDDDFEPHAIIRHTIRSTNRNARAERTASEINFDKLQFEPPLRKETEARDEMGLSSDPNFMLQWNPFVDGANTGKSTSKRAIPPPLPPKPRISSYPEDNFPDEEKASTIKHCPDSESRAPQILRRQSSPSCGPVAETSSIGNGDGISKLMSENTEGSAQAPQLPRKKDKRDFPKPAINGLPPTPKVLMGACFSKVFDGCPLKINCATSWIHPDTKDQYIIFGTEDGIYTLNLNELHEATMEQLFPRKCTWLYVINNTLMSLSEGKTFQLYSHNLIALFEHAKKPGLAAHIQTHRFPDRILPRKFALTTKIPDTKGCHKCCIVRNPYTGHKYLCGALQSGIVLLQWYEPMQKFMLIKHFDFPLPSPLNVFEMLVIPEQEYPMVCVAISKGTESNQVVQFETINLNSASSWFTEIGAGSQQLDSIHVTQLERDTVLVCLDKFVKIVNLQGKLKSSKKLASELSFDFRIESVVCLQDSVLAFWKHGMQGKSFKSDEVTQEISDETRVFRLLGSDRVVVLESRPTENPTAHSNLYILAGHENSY
Sequence of CSK (P41240 whole entry, species assumed): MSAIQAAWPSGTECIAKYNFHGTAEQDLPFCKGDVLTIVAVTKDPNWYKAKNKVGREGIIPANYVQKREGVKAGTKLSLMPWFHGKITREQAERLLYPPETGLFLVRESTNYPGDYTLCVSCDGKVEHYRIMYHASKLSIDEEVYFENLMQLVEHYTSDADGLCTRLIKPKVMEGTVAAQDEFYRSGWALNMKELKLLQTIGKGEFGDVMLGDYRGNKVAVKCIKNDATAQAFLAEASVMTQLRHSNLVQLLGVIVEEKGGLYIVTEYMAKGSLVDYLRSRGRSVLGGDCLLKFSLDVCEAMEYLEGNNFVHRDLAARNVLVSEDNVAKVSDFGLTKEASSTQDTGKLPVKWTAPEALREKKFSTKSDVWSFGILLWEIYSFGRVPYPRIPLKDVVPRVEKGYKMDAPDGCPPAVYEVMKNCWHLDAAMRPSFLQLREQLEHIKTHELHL

| Compound | residual kinase activity, MAP4K5 [11] | residual kinase activity, DDR2 [1, 12] | residual kinase activity, SIK3 [2, 12] | residual kinase activity, MNK2 [3, 12] | residual kinase activity, MAPKAP-K3 [4, 12] | residual kinase activity, OSR1 [5, 12] | residual kinase activity, IRAK1 [6, 12] | residual kinase activity, CSK [7, 12] | residual kinase activity, EPH-B4 [8, 12] | residual kinase activity, CDK9-Cyclin T1 [9, 12] | residual kinase activity, SIK2 [10, 12] | other results |
| --- | --- | --- | --- | --- | --- | --- | --- | --- | --- | --- | --- | --- |
| CC(=O)Nc1nc2cc(O)ccc2s1 [Compound 01-66, N-(5-hydroxybenzo[d]thiazol-2-yl)acetamide] |  |  |  |  |  |  |  |  |  |  |  | remaining activity at 100 µM [1]: 65%; remaining activity at 100 µM [2]: 57%; remaining activity at 100 µM [3]: 33%; remaining activity at 100 µM [4]: 39%; remaining activity at 100 µM [5]: 95%; remaining activity at 100 µM [6]: 29%; remaining activity at 100 µM [7]: 92%; remaining activity at 100 µM [8]: 83%; remaining activity at 100 µM [9]: 85%; remaining activity at 100 µM [10]: 56% |
| CC(=O)Nc1nc2ccc(O)cc2s1 [Compound 01-71] |  |  |  |  |  |  |  |  |  |  |  | remaining activity at 100 µM [1, 12]: 56%; remaining activity at 100 µM [2, 12]: 46%; remaining activity at 100 µM [3, 12]: 34%; remaining activity at 100 µM [4, 12]: 34%; remaining activity at 100 µM [5, 12]: 78%; remaining activity at 100 µM [6, 12]: 26%; remaining activity at 100 µM [7, 12]: 78%; remaining activity at 100 µM [8, 12]: 98%; remaining activity at 100 µM [9, 12]: 48%; remaining activity at 100 µM [10, 12]: 32% |
| O=C(Nc1nc2cc(O)ccc2s1)c1cccnc1 [Compound 03-33] | 58 | 109 | 92 | 36 | 97 | 109 | 57 | 88 | 106 | 97 | 69 |  |
| O=C(Nc1nc2cc(O)ccc2s1)c1ccccn1 [Compound 03-13] | 50 | 85 | 96 | 66 | 62 | 97 | 38 | 95 | 88 | 93 | 96 |  |
| CC(=O)Nc1nc2cc(C)ccc2s1 [Compound 03-76] | 83 | 110 | 103 | 81 | 106 | 116 | 59 | 101 | 109 | 49 | 71 |  |
| O=C(Nc1nc2ccc(O)cc2s1)c1ccncc1 [Compound 08-42] | 67 | 89 | 67 | 33 | 51 | 72 | 38 | 89 | 92 | 66 | 82 |  |
| O=C(Nc1nc2ccc(O)cc2s1)c1ccccn1 [Compound 03-12] | 74 | 104 | 82 | 66 | 31 | 59 | 37 | 101 | 84 | 76 | 77 |  |
| CC(=O)Nc1cccc(NC(=O)c2nc3ccc(O)cc3s2)c1 [Compound 03-07, N-(3-acetamidophenyl)-6-hydroxybenzo[d]thiazole-2-carboxamide] |  |  |  |  |  |  |  |  |  |  |  | remaining activity at 100 µM ([11]; 100 micromolar inhibitor, 100 = no change, read-out: residual kinase activity, MAP4K5): 56%; remaining activity at 100 µM [1, 13]: 90%; remaining activity at 100 µM [2, 13]: 56%; remaining activity at 100 µM [3, 13]: 50%; remaining activity at 100 µM [4, 13]: 34%; remaining activity at 100 µM [5, 13]: 87%; remaining activity at 100 µM [6, 13]: 49%; remaining activity at 100 µM [7, 13]: 105%; remaining activity at 100 µM [8, 13]: 100%; remaining activity at 100 µM [9, 13]: 76%; remaining activity at 100 µM [10, 13]: 28% |
| O=C(Nc1nc2ccc(O)cc2s1)c1ccccc1 [Compound 03-60] | 31 | 112 | 42 | 25 | 92 | 82 | 26 | 69 | 110 | 76 | 26 |  |
| CC(=O)Nc1nc2ccccc2s1 [Compound 03-32] | 95 | 97 | 89 | 91 | 61 | 112 | 65 | 83 | 99 | 45 | 81 |  |
